Values after ≈ are worked out from the molar mass of the structure shown. Read-outs that look alike come from different tables or passages of the source. Marks after values point to notes of the source that are not given here. Peptide text beside a SMILES is read from it.

In general, LD50 refers to the dose at which mortality reaches 50%. Higher therefore signals a less toxic substance. As a reminder, the viability is a read-out of living cells in per cent, often relative to untreated cells. Read a low viability as a greater loss of cells.

For data set [1], the system named is S. epidermidis. The note with it: 18 h.
Data set [2] deals with S. aureus. The note with it: 18 h.
The subject of data set [3] is 5 microorganisms tested (S. epidermidis, S. aureus, E. coli, P. aeruginosa, C. albicans). Nature of the data set: Mean MIC over the panel and selectivity index (Example 1). Format: cell-based. As for the experimental part:
Red blood cells suspension incubated with PBS was used as negative control.

Data set [4] has as its system LPS-stimulated NO production in NR8383 rat macrophage cell line. Nature of the data set: Endotoxin neutralization assay (Griess nitrite). Type of data set: cell-based. The conditions noted are these: 125 mg L^−1 peptide, 100 ng mL^−1 LPS, 18 h. As for the experimental part: Untreated cells and cells that were stimulated with LPS alone served as the […] controls, respectively. The amount of NO produced was estimated by quantifying the concentration of the stable NO metabolite nitrite in the isolated supernatant fractions using the Griess reagent (1% sulphanilamide, 0.1% N-1-napthylethylenediamine dihydrochloride, 5% phosphoric acid) according to the manufacturer's protocol. The absorbance was measured at 540 nm and nitrite concentrations were determined using a standard reference curve prepared from known concentrations of NaNO2 solutions.
In general terms: Nitrite, measured by Griess reagent, commonly stands in for NO production.

The subject of data set [5] is S. aureus biofilms. Format: cell-based, Staphylococcus aureus. The conditions noted are these: MIC, 4×MIC, 8×MIC, 24 h. As for the experimental part: The wells were then rinsed once with 100 μL of PBS to remove planktonic cells and loosely attached cells, and replenished with 100 μL of fresh broth. Biofilm formation was allowed to proceed up to 6-8 days with daily rinsing and media changes before use in experiments. […] Subsequently, the solutions were removed and 120 μL of activated XTT solution was added into each well. […] Relative cell viability was expressed as [(A490-[…])sample/(A490-[…])control]×100%.

The test system of data set [6] is S. epidermidis. The note with it: 18 h. The source holds these as a separate data set.
Data set [7] deals with P. aeruginosa. The data set is described as follows: MBC against clinical isolates. Format: cell-based. The note with it: clinical isolate.
The subject of data set [8] is E. coli and S. aureus. Nature of the data set: FE-SEM imaging of treated bacteria (Example 1). Format: cell-based, Escherichia coli, Staphylococcus aureus. The note with it: 2 h treatment. Here is the method:
E. coli suspension at ˜3×10^8 CFU ml^−1 (100 μL) was incubated with an equal volume of broth containing 20% (by volume) of water and a lethal dose (250 mg L^−1) of a representative peptide in a 96 well-plate for 2 h. Eight replicates of each condition was pooled into a microfuge tube, pelleted down at 5000×g for 5 min, and rinsed twice with PBS. The samples were then fixed with 4% formaldehyde at room temperature for 15 min, followed by rinsing with DI water. Dehydration of the cells was performed using a series of graded ethanol solutions (35, 50, 75, 90, 95 and 100%). The samples were allowed to air-dry, mounted on carbon table, and sputter coated with platinum for imaging with a FE-SEM setup (JEOL JSM-7400F, Japan).

For data set [9], the system named is C. albicans.
Data set [10] deals with S. aureus biofilms. The data set is described as follows: Biofilm biomass, crystal violet staining. Format: cell-based, Staphylococcus aureus. The note with it: MIC, 4×MIC, 8×MIC, 24 h. As for the experimental part:
The biomass of the biofilms was estimated by a crystal violet staining assay. Briefly, the formed biofilms were first treated with the peptides for 24 h as described above. After aspirating the culture medium, the biofilms were washed once with PBS, fixed with methanol for 15 min at room temperature and stained with 100 μL of 0.1% (weight by volume) crystal violet for 10 min. The excess crystal violet dye was removed by rinsing the wells with DI water for five times. The dye that is associated with the biofilm was extracted using 100 μL of 33% glacial acetic acid per well and quantified by measuring the absorbance at a wavelength of 570 nm using a microplate reader (TECAN, Switzerland). The relative amount of biomass remaining after peptide treatment was expressed as a percentage of the control treated with broth containing 10% (by volume) of water. Data represent mean±standard deviations of four replicates per concentration.

The subject of data set [11] is C. neoformans. The data set is described as follows: MBC against clinical isolates. The note with it: clinical isolate. Type of data set: cell-based.
Data set [12] has as its system C. albicans. The note with it: 42 h.
Data set [13] deals with A. baumanni. The conditions noted are these: clinical isolate, multidrug resistant.
In data set [14] the test system is P. aeruginosa. The conditions noted are these: 18 h.
Data set [15] is described as follows: Acute in vivo toxicity, intravenous tail vein injection. The conditions noted are these: mouse, mice. Here is the method: For the β-sheet forming peptides to qualify as suitable therapeutic candidates, their antimicrobial activities should be considered in the light of their selectivity for microbial cell membranes so as to minimize toxicities towards mammalian cells. […] The selectivity indices (SIs) of the peptides were further evaluated as a comparison of the safety and efficacies of the different peptide sequences (Table 2). SIs of the various peptides were calculated as the ratio of the HC10 value (defined as the lowest peptide concentration that induces 10% or more haemolysis) to the GM (geometric mean MICs of the 5 microbial strains tested). […] The acute in vivo toxicity testing was performed via intravenous tail vein injection of solutions containing representative peptides of n=2 [(IRIK)2-NH2 (SEQ ID NO: 17)] and n=3 [(IRVK)3-NH2 (SEQ ID NO: 22)] repeat units in mice.

Data set [16] relates to Vancomycin-resistant Enterococci. The conditions noted are these: clinical isolate.
Data set [17] has as its system Methicillin-resistant S. aureus. The conditions noted are these: clinical isolate.
For data set [18], the system named is clinically isolated Mycobacterium tuberculosis.
The test system of data set [19] is 5 microorganisms tested (S. epidermidis, S. aureus, E. coli, P. aeruginosa, C. albicans). The data set is described as follows: Mean MIC over the panel and selectivity index (Example 2).
Data set [20] has as its system P. aeruginosa. The note with it: 18 h. The source holds these as a separate data set.
Data set [21] has as its system E. coli. The note with it: 18 h.
Data set [22] relates to S. aureus. The conditions noted are these: 18 h. The source holds these as a separate data set.
Data set [23] relates to rabbit red blood cells. Format: cell-based. The note with it: red cells of rabbit, 1 h.
Data set [24] relates to E. coli. The conditions noted are these: 18 h. This is another data set of the same source.
Data set [25] in a line: in vitro. Type of data set: cell-based. The conditions noted are these: human. Here is the method: (§1) HeLa, HDF and NR8383 cells were respectively seeded at a densities of 1×10^4, 1×10^4 and 4×10^4 cells per well of a 96-well plate. Following overnight incubation, the cells were treated with 3.9 to 500 mg L^−1 of (IRIK)3-NH2 (SEQ ID NO: 21) and (VRVK)3-NH2 (SEQ ID NO: 20) for 24 h. For the adherent HeLa and HDF cell lines, the incubation media in each well were replaced with 100 μL of growth media and 10 μL of MTT solution (5 mg·ml^−1 in PBS). The cells were further incubated for 4 h at 37° C. according to the manufacturer's directions. Resultant formazan crystals formed in each well were solubilized using 150 μL of DMSO upon removal of growth media. A 100 μL aliquot from each well was then transferred to a new 96-well plate for determination of absorbance using a microplate spectrophotometer at wavelengths of 550 nm and 690 nm. Relative cell viability was expressed as [(A550−A690)sample/(A550−A690)control]×100%.

Data set [26] is described as follows: in vitro. Format: cell-based. The conditions noted are these: rat, NR8383 macrophage cells. As for the experimental part:
as §1
For the semi-adherent NR8383 cells, 20 μL of […]-BLUE® reagent was added into each well after treatment and the plate was incubated for a further 4 h. The fluorescence intensity readings of the wells were determined at excitation wavelength of 560 nm and emission wavelength of 590 nm using a microplate reader. […]

In data set [27] the test system is S. aureus. Type of data set: cell-based, Staphylococcus aureus. The note with it: passage 20.

For the compound `CC[C@H](C)[C@H](N)C(=O)N[C@@H](CCCNC(=N)N)C(=O)N[C@H](C(=O)N[C@@H](CCCCN)C(=O)N[C@H](C(=O)N[C@@H](CCCNC(=N)N)C(=O)N[C@H](C(=O)N[C@@H](CCCCN)C(=O)N[C@H](C(=O)N[C@@H](CCCNC(=N)N)C(=O)N[C@H](C(=O)N[C@@H](CCCCN)C(N)=O)C(C)C)[C@@H](C)CC)C(C)C)[C@@H](C)CC)C(C)C` [(IRVK)3-NH2] (H-IRVKIRVKIRVK-NH2; N-terminus assumed), the “MIC S. epidermidis” value in data set [1] and in data set [6] was 2.0 mg/L (≈ 1.33 µM) each time. Also, the “MIC S. aureus” value in data set [2] and in data set [22] was 31.3 mg/L (≈ 20.8 µM) throughout. Besides, the “GM, geometric mean of MIC values for the 5 microorganisms tested” value (from here on “GM, geometric mean of MIC values”) in [3] and in data set [19] was 47.3 mg/L each time. Further, the “nitrite concentration, LPS-stimulated NO production” value in [4] is reported as “reduced to the control level”. Further, the “killing of S. aureus residing in biofilms” value in data set [5] is given as “dose-dependent killing”. Also, the “MBC P. aeruginosa” value in data set [7] amounted to 15.6 mg/L (≈ 10.4 µM). Besides, in [8], the “surface morphology under FE-SEM” value was “rough and uneven”. The “MIC C. albicans” value in [9] and in data set [12] was 125 mg/L (≈ 82.9 µM) in each case. The “amount of biomass in the treated biofilms” value in [10] is given as “reduced in a dose-dependent manner”. Further, the “MBC C. neoformans” value in data set [11] stood at 15.6 mg/L (≈ 10.4 µM). Besides, the “MBC A. baumanni” value in [13] is 15.6 mg/L (≈ 10.4 µM). Moreover, the “MIC P aeruginosa” value in data set [14] turned out to be 62.5 mg/L (≈ 41.5 µM). Also, in [15], the LD50 stood at 35.2 mg/kg. Moreover, the “MBC Vancomycin-resistant Enterococci” value in data set [16] was 7.8 mg/L (≈ 5.18 µM). Besides, the “MBC Methicillin-resistant S. aureus” value in data set [17] came out at 15.6 mg/L (≈ 10.4 µM). In addition, the figures for the “MIC M. tuberculosis” value in [18] (strain number 1140) and in [18] (strain number 1146) were 15.6 mg/L (≈ 10.4 µM) and more than 31.3 mg/L, respectively. Moreover, the “MIC P. aeruginosa” value in data set [20] is 62.5 mg/L (≈ 41.5 µM). Further, the “MIC E. coli” value in data set [21] and in data set [24] was 15.6 mg/L (≈ 10.4 µM) throughout. The “HC10, haemolysis concentration 10%: lowest peptide concentration that induces ≧10% haemolysis” value in data set [23] is >125^e) mg L^−1.
`CC(C)[C@H](N)C(=O)N[C@@H](CCCNC(=N)N)C(=O)N[C@H](C(=O)N[C@@H](CCCCN)C(=O)N[C@H](C(=O)N[C@@H](CCCNC(=N)N)C(=O)N[C@H](C(=O)N[C@@H](CCCCN)C(=O)N[C@H](C(=O)N[C@@H](CCCNC(=N)N)C(=O)N[C@H](C(=O)N[C@@H](CCCCN)C(N)=O)C(C)C)C(C)C)C(C)C)C(C)C)C(C)C` [(VRVK)3-NH2] (H-VRVKVRVKVRVK-NH2; N-terminus assumed) registered a viability at 24 h, 250 mg/L in data set [25] of 30%. Besides, the viability at 24 h, 250 µg/mL in [25] (HDF dermal fibroblast cells) and in [26] was more than 53% each time. Besides, the “GM, geometric mean of MIC values” value in data set [3] came to 34.6 mg/L. For the same compound, the “MIC S. epidermidis” value in [6] was determined as 1.0 mg/L (≈ 0.683 µM). For the same compound, in data set [12], the “MIC C. albicans” value was determined as 31.3 mg/L (≈ 21.4 µM). The “MIC P. aeruginosa” value in [20] is 62.5 mg/L (≈ 42.7 µM). For the same compound, the “MIC S. aureus” value in data set [22] stood at 62.5 mg/L (≈ 42.7 µM). In data set [24], the “MIC E. coli” value was determined as 15.6 mg/L (≈ 10.6 µM).
On to `CC1(C)S[C@@H]2[C@H](NC(=O)Cc3ccccc3)C(=O)N2[C@H]1C(=O)O` [penicillin G, reference compound], for which the “MICn/MIC0, fold increase in MIC” value in data set [27] came to 32.
Consider `CC[C@H](C)[C@H](N)C(=O)N[C@@H](CCCNC(=N)N)C(=O)N[C@H](C(=O)N[C@@H](CCCCN)C(=O)N[C@H](C(=O)N[C@@H](CCCNC(=N)N)C(=O)N[C@H](C(=O)N[C@@H](CCCCN)C(=O)N[C@H](C(=O)N[C@@H](CCCNC(=N)N)C(=O)N[C@H](C(=O)N[C@@H](CCCCN)C(N)=O)[C@@H](C)CC)[C@@H](C)CC)[C@@H](C)CC)[C@@H](C)CC)[C@@H](C)CC` [(IRIK)3-NH2] (H-IRIKIRIKIRIK-NH2; N-terminus assumed), for which the viability at 24 h, 125 µg/mL in data set [25] (HDF dermal fibroblast cells) and in [26] was more than 80% in each case. Moreover, the “GM, geometric mean of MIC values” value in data set [3] was 162.7 mg/L. Also, in [4], the “nitrite concentration, LPS-stimulated NO production” value is recorded as “reduced to the control level”. The “MIC S. epidermidis” value in data set [6] turned out to be 1.0 mg/L (≈ 0.646 µM). For the same compound, the “MIC C. albicans” value in data set [12] amounted to 125 mg/L (≈ 80.7 µM). Also, in data set [20], the “MIC P. aeruginosa” value turned out to be 500 mg/L (≈ 323 µM). For the same compound, the “MIC S. aureus” value in data set [22] was determined as 62.5 mg/L (≈ 40.3 µM). In data set [24], the “MIC E. coli” value amounted to 125 mg/L (≈ 80.7 µM).
